Measured values taken from BindingDB's records for doi:10.1021/acschembio.7b00041 (Bc Cancer Agency, 2017).

Assays:
Assay in all cases: ATPase enzyme assay
[1] = target: Eukaryotic initiation factor 4A-III (Homo sapiens, UniProt P38919)
Experimental: (§1) Inhibitory activity was assessed under the following conditions: 350 uM ATP/1.5 ug mL−1 RNA indicated by black; 35 uM ATP/1.5 ug mL−1 RNA indicated by red; 3.5 uM ATP/1.5 ug mL−1 RNA indicated by blue; 35 uM ATP/60 ug mL−1 RNA indicated by green (n = 4, mean +/- standard deviation).

[2] = target: T1, ATP-dependent RNA helicase DHX29 (Homo sapiens, UniProt Q7Z478)
T1 sequence (Q7Z478 whole entry): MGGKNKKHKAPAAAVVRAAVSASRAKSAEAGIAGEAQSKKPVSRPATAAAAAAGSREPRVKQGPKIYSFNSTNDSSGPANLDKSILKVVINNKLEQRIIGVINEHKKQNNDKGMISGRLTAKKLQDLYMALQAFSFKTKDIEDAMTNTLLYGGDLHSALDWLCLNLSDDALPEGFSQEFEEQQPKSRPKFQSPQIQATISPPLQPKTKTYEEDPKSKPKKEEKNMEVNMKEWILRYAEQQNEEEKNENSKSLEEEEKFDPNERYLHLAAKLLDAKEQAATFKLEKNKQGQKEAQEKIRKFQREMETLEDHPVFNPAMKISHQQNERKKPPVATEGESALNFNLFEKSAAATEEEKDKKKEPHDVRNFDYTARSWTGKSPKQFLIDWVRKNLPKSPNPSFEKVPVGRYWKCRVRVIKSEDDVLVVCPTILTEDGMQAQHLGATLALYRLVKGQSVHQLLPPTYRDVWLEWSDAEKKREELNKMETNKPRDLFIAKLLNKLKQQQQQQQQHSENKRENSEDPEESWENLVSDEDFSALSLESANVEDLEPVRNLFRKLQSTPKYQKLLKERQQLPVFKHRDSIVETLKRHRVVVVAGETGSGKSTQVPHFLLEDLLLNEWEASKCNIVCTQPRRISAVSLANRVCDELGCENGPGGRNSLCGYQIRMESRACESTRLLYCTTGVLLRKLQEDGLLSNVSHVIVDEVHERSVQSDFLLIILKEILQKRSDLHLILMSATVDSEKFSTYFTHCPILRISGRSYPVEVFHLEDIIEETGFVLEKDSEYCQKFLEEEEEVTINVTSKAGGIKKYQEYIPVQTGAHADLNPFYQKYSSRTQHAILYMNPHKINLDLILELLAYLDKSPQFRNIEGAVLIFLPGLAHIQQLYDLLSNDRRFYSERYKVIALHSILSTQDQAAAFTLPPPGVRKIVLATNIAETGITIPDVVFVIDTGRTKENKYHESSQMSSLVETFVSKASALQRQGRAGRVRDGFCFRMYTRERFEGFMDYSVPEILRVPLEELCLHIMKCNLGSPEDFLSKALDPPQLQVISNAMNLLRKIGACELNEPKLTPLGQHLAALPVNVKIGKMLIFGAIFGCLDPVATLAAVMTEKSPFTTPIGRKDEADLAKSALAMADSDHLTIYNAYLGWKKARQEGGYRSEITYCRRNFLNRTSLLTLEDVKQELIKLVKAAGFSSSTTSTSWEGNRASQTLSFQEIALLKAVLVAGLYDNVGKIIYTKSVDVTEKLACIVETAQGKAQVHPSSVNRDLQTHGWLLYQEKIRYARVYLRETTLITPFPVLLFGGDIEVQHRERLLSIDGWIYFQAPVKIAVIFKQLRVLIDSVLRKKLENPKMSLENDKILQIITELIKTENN
Experimental: as §1

[3] = target: Eukaryotic initiation factor 4A-II (Homo sapiens, UniProt Q14240)
Experimental: as §1

[4] = target: Eukaryotic initiation factor 4A-I (Homo sapiens, UniProt P60842)
Experimental: as §1

[5] = target: U5 small nuclear ribonucleoprotein 200 kDa helicase (Homo sapiens, UniProt O75643)
Experimental: as §1

Chain of Eukaryotic initiation factor 4A-III (P38919 whole entry): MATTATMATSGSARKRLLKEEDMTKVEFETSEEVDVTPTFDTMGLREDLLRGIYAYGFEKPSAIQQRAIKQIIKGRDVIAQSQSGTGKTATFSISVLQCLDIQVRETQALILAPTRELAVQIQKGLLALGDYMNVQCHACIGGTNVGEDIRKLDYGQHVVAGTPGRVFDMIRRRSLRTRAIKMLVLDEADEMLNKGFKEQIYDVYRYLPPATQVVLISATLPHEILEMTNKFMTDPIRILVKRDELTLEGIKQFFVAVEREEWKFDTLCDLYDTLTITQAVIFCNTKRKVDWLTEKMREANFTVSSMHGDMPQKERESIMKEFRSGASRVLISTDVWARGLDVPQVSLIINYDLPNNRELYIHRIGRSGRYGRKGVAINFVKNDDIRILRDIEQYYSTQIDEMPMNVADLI
Chain of Eukaryotic initiation factor 4A-I (P60842 whole entry): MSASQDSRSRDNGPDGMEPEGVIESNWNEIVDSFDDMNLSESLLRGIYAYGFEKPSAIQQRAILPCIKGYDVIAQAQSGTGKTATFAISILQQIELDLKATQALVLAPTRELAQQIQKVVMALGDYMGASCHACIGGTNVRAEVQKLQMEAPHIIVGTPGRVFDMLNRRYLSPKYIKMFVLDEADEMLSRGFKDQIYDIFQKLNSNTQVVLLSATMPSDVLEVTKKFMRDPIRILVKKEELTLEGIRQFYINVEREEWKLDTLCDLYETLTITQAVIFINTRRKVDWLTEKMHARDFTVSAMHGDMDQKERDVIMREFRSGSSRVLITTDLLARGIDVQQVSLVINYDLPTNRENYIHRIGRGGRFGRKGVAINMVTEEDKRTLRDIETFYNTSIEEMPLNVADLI
Chain of Eukaryotic initiation factor 4A-II (Q14240 whole entry): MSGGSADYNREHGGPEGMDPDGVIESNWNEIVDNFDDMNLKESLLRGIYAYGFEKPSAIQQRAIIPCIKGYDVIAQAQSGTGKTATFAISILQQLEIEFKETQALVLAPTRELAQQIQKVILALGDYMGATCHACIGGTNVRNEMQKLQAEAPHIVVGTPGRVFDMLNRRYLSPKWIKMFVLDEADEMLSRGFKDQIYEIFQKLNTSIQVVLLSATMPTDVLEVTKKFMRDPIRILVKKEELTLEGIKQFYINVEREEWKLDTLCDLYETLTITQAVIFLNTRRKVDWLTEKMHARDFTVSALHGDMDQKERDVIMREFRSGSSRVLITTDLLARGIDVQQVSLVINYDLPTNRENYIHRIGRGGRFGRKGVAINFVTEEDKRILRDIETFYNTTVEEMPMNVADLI
Chain of U5 small nuclear ribonucleoprotein 200 kDa helicase (O75643 whole entry): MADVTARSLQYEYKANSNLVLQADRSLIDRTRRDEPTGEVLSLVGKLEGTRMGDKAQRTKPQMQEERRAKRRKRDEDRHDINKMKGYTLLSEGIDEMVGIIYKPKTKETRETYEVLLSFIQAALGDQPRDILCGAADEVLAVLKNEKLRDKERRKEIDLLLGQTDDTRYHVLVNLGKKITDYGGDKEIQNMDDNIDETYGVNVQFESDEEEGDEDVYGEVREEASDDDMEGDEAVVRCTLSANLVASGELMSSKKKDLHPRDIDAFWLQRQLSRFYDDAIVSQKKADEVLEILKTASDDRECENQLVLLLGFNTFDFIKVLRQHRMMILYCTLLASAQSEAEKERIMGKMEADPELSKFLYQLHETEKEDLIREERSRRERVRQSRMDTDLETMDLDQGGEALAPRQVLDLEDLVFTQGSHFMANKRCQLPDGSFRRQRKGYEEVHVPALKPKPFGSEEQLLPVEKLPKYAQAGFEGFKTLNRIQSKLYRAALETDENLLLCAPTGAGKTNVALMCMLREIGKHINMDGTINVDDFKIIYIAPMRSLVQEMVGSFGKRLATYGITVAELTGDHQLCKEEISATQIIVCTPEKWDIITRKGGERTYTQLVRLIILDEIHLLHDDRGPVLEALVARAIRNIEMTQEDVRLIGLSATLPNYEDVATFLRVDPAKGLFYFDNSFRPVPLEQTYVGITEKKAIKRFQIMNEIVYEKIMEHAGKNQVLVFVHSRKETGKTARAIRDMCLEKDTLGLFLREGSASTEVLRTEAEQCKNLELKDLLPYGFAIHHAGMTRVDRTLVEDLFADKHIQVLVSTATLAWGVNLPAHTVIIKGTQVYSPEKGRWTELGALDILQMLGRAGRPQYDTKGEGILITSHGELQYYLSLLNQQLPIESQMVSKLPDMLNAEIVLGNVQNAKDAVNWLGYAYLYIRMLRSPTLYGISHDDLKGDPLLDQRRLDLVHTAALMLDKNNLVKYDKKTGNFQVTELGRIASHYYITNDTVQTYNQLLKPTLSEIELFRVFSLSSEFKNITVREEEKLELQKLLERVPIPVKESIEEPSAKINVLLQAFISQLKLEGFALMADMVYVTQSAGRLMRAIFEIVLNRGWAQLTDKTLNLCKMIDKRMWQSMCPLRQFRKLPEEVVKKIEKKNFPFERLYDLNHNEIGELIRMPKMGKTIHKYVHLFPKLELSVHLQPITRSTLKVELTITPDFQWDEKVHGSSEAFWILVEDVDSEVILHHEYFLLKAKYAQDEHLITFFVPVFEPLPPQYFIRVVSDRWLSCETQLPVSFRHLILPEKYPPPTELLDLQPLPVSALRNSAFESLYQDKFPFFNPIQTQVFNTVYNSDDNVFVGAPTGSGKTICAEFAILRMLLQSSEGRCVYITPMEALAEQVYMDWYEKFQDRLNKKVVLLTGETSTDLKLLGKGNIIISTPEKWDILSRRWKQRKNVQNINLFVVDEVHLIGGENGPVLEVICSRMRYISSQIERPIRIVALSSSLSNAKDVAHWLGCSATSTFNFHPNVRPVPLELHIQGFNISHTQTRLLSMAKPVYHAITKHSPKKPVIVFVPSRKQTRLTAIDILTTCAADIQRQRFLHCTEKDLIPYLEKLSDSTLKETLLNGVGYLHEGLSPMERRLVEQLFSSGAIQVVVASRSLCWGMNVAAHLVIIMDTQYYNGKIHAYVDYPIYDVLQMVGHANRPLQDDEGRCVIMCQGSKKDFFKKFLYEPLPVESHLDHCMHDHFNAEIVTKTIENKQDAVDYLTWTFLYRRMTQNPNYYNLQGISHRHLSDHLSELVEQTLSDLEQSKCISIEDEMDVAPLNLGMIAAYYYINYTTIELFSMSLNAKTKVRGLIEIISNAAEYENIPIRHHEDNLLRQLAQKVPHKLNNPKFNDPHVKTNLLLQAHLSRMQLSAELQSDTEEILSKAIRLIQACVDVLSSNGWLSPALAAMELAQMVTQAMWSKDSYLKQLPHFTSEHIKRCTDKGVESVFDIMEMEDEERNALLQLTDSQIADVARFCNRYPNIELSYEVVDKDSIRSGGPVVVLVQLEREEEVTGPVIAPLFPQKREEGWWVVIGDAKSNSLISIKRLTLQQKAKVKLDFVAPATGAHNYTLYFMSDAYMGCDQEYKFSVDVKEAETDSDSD

O=C(c1cnn2cc(Br)ccc12)N1CCN(C(=O)c2ccc(Br)cc2)[C@@H](c2ccc(Cl)cc2)C1 [eIF4A3 inhibitor, 2]
IC50 [1]: 110 nM
IC50 [2]: > 100 µM
IC50 [3]: > 100 µM
IC50 [4]: > 100 µM
IC50 [5]: > 100 µM
